# Experimental data published in patent US8785488B2 (Exelixis Patent Company LLC, priority 2009, dated 2014).
# Tests used:
# human TGR5 (h-TGR5) = biological target: T1, human TGR5 (h-TGR5) (Homo sapiens, UniProt Q8TDU6); test: TGR5/CRE-Luciferiase Assay (HEK 293 hTGR5/CRE-Luc cells); type: cell-based; conditions: h-TGR5 CRE-Luc EC50, Table 1; read-out: CRE-Luc (EC50)
# T1 construct: expressed in transfected cells
# T1 sequence (Q8TDU6 1-330): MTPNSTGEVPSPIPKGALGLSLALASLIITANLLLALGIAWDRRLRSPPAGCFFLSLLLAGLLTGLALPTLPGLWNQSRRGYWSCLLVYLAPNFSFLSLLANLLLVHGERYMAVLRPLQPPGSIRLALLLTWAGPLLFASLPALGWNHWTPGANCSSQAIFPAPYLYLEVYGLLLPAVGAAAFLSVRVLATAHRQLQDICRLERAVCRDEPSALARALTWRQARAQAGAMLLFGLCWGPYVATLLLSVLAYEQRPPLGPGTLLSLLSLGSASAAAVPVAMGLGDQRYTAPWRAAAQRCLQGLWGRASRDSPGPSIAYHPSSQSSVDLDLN
# Method in brief: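 HEK293 cells stably carrying hTGR5 and a CRE-luciferase reporter were exposed to serially diluted compounds (diluted in DMEM with 5% DMSO) for 6 h. Cells were then lysed in luciferase buffer, luminescence was read, and EC50 values were derived from dose-response curves.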
# h-TGR5 = biological target: T2, h-TGR5 (Homo sapiens, UniProt Q8TDU6); test: TGR5 cAMP Assay using Cisbio cAMP Dynamic2 htrf kit (hTGR5CRE-luc HEK 293 cells); type: cell-based; conditions: h-TGR5 cAMP EC50, Table 1; read-out: cAMP (EC50)
# T2 construct: expressed in transfected cells
# T2 sequence (Q8TDU6 1-330): T1 sequence (Q8TDU6 1-330)
# Method in brief: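 […], 4000 hTGR5CRE-luc HEK 293 cells per well, with 0.5 mM IBMX and d2-cAMP, were incubated 30 min at room temperature with compounds in 8-point half-log series, in quadruplicate.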
SMILES,EC50 (human TGR5 (h-TGR5)),EC50 (h-TGR5)
COc1cc(C(C)(C)c2cnc(SCc3ccc(F)c(S(N)(=O)=O)c3)n2-c2ccc(F)cc2)ccc1Cl [5-({[5-{1-[4-chloro-3-(methyloxy)phenyl]-1-methylethyl}-1-(4-fluorophenyl)-1H-imidazol-2-yl]thio}methyl)-2-fluorobenzenesulfonamide],< 0.1 µM,< 0.1 µM
"CC(C)(c1ccc(Cl)c(Cl)c1)c1cnc(SCC2CCN(S(C)(=O)=O)C2)n1-c1ccc(F)cc1 (stereo not drawn) [5-[1-(3,4-dichlorophenyl)-1-methylethyl]-1-(4-fluorophenyl)-2-({[1-(methylsulfonyl)pyrrolidin-3-yl]methyl}thio)-1H-imidazole]",0.1 to 1 µM,0.1 to 1 µM
"CC(C)(c1ccc(Cl)c(Cl)c1)c1cnc(SCc2ccc(F)c(S(C)(=O)=O)c2)n1-c1ccc(F)cc1 [5-[1-(3,4-dichlorophenyl)-1-methylethyl]-2-({[4-fluoro-3-(methylsulfonyl)phenyl]methyl}thio)-1-(4-fluorophenyl)-1H-imidazole]",< 0.1 µM,0.1 to 1 µM
"CC(C)(c1ccc(Cl)c(Cl)c1)c1cnc(SCc2c(F)cccc2F)n1-c1ccc(F)cc1 [5-[1-(3,4-dichlorophenyl)-1-methylethyl]-2-{[(2,6-difluorophenyl)methyl]thio}-1-(4-fluorophenyl)-1H-imidazole]",< 0.1 µM,0.1 to 1 µM
CC(C)(c1ccc(F)c(Cl)c1)c1cnc(SCc2c(F)cccc2Cl)n1-c1ccc(F)cc1 [5-[1-(3-chloro-4-fluorophenyl)-1-methylethyl]-2-{[(2-chloro-6-fluorophenyl)methyl]thio}-1-(4-fluorophenyl)-1H-imidazole],< 0.1 µM,0.1 to 1 µM
CC(C)(c1ccc(Cl)cc1F)c1cnc(SCc2c(F)cccc2Cl)n1-c1ccc(F)cc1 [5-[1-(4-chloro-2-fluorophenyl)-1-methylethyl]-2-{[(2-chloro-6-fluorophenyl)methyl]thio}-1-(4-fluorophenyl)-1H-imidazole],0.1 to 1 µM,0.1 to 1 µM
"COc1ccc(C2CCCCN2S(=O)(=O)c2ncc(C(C)(C)c3ccc(Cl)c(Cl)c3)n2-c2ccc(F)cc2)cn1 (stereo not drawn) [5-[1-({5-[1-(3,4-dichlorophenyl)-1-methylethyl]-1-(4-fluorophenyl)-1H-imidazol-2-yl}sulfonyl)piperidin-2-yl]-2-(methyloxy)pyridine]",0.1 to 1 µM,0.1 to 1 µM
"COc1ccc(C(C)(C)c2cnc(SCc3cc(-c4nnn[nH]4)c(Cl)cc3Cl)n2-c2ccc(F)cc2)cc1Cl [5-[2,4-dichloro-5-({[5-{1-[3-chloro-4-(methyloxy)phenyl]-1-methylethyl}-1-(4-fluorophenyl)-1H-imidazol-2-yl]thio}methyl)phenyl]-1H-tetrazole]",< 0.1 µM,0.1 to 1 µM
COc1ccc(C(C)(C)c2cnc(SCc3ccc(Cl)c(-c4nnn[nH]4)c3)n2-c2ccc(F)cc2)cc1Cl [5-[2-chloro-5-({[5-{1-[3-chloro-4-(methyloxy)phenyl]-1-methylethyl}-1-(4-fluorophenyl)-1H-imidazol-2-yl]thio}methyl)phenyl]-1H-tetrazole],< 0.1 µM,0.1 to 1 µM
COc1cc(C(C)(C)c2cnc(COc3ccc(Cl)c(-c4nnn[nH]4)c3)n2-c2ccc(F)cc2)ccc1Cl [5-[2-chloro-5-({[5-{1-[4-chloro-3-(methyloxy)phenyl]-1-methylethyl}-1-(4-fluorophenyl)-1H-imidazol-2-yl]methyl}oxy)phenyl]-1H-tetrazole],< 0.1 µM,0.1 to 1 µM
COc1cc(C(C)(C)c2cnc(SCc3ccc(Cl)c(-c4nnn[nH]4)c3)n2-c2ccc(F)cc2)ccc1Cl [5-[2-chloro-5-({[5-{l-[4-chloro-3-(methyloxy)phenyl]-1-methylethyl}-1-(4-fluorophenyl)-1H-imidazol-2-yl]thio}methyl)phenyl]-1H-tetrazole],< 0.1 µM,0.1 to 1 µM
"COc1cc(C(C)(C)c2cnc(SCc3c(F)cc(-c4n[nH]c(=O)o4)cc3Cl)n2-c2ccc(F)cc2)ccc1Cl [5-[3-chloro-4-({[5-{1-[4-chloro-3-(methyloxy)phenyl]-1-methylethyl}-1-(4-fluorophenyl)-1H-imidazol-2-yl]thio}methyl)-5-fluorophenyl]-1,3,4-oxadiazol-2(3H)-one]",< 0.1 µM,< 0.1 µM
"COc1cc(C(C)(C)c2cnc(SCc3c(F)cc(-c4nnn[nH]4)cc3F)n2-c2ccc(F)cc2)ccc1Cl [5-[4-({[5-{1-[4-chloro-3-(methyloxy)phenyl]-1-methylethyl}-1-(4-fluorophenyl)-1H-imidazol-2-yl]thio}methyl)-3,5-difluorophenyl]-1H-tetrazole]",< 0.1 µM,< 0.1 µM
COc1cc(C(C)(C)c2cnc(SCc3ccc(F)c(-c4nnn[nH]4)c3)n2-c2ccc(F)cc2)ccc1Cl [5-[5-({[5-{1-[4-chloro-3-(methyloxy)phenyl]-1-methylethyl}-1-(4-fluorophenyl)-1H-imidazol-2-yl]thio}methyl)-2-fluorophenyl]-1H-tetrazole],< 0.1 µM,< 0.1 µM
"CC(C)(O)COc1ccc(CSc2ncc(C(C)(C)c3ccc(Cl)c(Cl)c3)n2-c2ccc(F)cc2)cc1S(N)(=O)=O [5-[({5-[1-(3,4-dichlorophenyl)-1-methylethyl]-1-(4-fluorophenyl)-1H-imidazol-2-yl}thio)methyl]-2-[(2-hydroxy-2-methylpropyl)oxy]benzenesulfonamide]",< 0.1 µM,0.1 to 1 µM

# Second part, the molecule after the results:
EC50 (human TGR5 (h-TGR5)),EC50 (h-TGR5),SMILES
< 0.1 µM,0.1 to 1 µM,"CC(C)(c1ccc(Cl)c(Cl)c1)c1cnc(SCc2ccc(OCCO)c(S(N)(=O)=O)c2)n1-c1ccc(F)cc1 [5-[({5-[1-(3,4-dichlorophenyl)-1-methylethyl]-1-(4-fluorophenyl)-1H-imidazol-2-yl}thio)methyl]-2-[(2-hydroxyethyl)oxy]benzenesulfonamide]"
< 0.1 µM,0.1 to 1 µM,"CC(=O)COc1ccc(CSc2ncc(C(C)(C)c3ccc(Cl)c(Cl)c3)n2-c2ccc(F)cc2)cc1S(N)(=O)=O [5-[({5-[1-(3,4-dichlorophenyl)-1-methylethyl]-1-(4-fluorophenyl)-1H-imidazol-2-yl}thio)methyl]-2-[(2-oxopropyl)oxy]benzenesulfonamide]"
0.1 to 1 µM,0.1 to 1 µM,"CC(C)(c1ccc(Cl)c(Cl)c1)c1cnc(SCc2ccc(F)c(C(N)=O)c2)n1-c1ccc(F)cc1 [5-[({5-[1-(3,4-dichlorophenyl)-1-methylethyl]-1-(4-fluorophenyl)-1H-imidazol-2-yl}thio)methyl]-2-fluorobenzamide]"
< 0.1 µM,0.1 to 1 µM,"CC(C)(c1ccc(Cl)c(Cl)c1)c1cnc(SCc2ccc(F)c(S(N)(=O)=O)c2)n1-c1ccc(F)cc1 [5-[({5-[1-(3,4-dichlorophenyl)-1-methylethyl]-1-(4-fluorophenyl)-1H-imidazol-2-yl}thio)methyl]-2-fluorobenzenesulfonamide]"
0.1 to 1 µM,0.1 to 1 µM,"CC(C)(c1ccc(Cl)c(Cl)c1)c1cnc(SCc2ccc(F)c(C(=O)O)c2)n1-c1ccc(F)cc1 [5-[({5-[1-(3,4-dichlorophenyl)-1-methylethyl]-1-(4-fluorophenyl)-1H-imidazol-2-yl}thio)methyl]-2-fluorobenzoic acid]"
< 0.1 µM,< 0.1 µM,"COc1ccc(C(C)(C)c2cnc(SCc3c(F)cccc3C(F)(F)F)n2-c2ccc(F)cc2)cc1OC [5-{1-[3,4-bis(methyloxy)phenyl]-1-methylethyl}-1-(4-fluorophenyl)-2-({[2-fluoro-6-(trifluoromethyl)phenyl]methyl}thio)-1H-imidazole]"
< 0.1 µM,< 0.1 µM,"COc1ccc(C(C)(C)c2cnc(CCc3c(F)cccc3Cl)n2-c2ccc(F)cc2)cc1OC [5-{1-[3,4-bis(methyloxy)phenyl]-1-methylethyl}-2-[2-(2-chloro-6-fluorophenyl)ethyl]-1-(4-fluorophenyl)-1H-imidazole]"
< 0.1 µM,< 0.1 µM,"COc1ccc(C(C)(C)c2cnc(SCc3c(Cl)cccc3Cl)n2-c2ccc(F)cc2)cc1OC [5-{1-[3,4-bis(methyloxy)phenyl]-1-methylethyl}-2-{[(2,6-dichlorophenyl)methyl]thio}-1-(4-fluorophenyl)-1H-imidazole]"
< 0.1 µM,0.1 to 1 µM,"COc1ccc(C(C)(C)c2cnc(SCc3ccc(F)cc3Cl)n2-c2ccc(F)cc2)cc1OC [5-{1-[3,4-bis(methyloxy)phenyl]-1-methylethyl}-2-{[(2-chloro-4-fluorophenyl)methyl]thio}-1-(4-fluorophenyl)-1H-imidazole]"
< 0.1 µM,< 0.1 µM,"COc1ccc(C(C)(C)c2cnc(SCc3cc(F)ccc3Cl)n2-c2ccc(F)cc2)cc1OC [5-{1-[3,4-bis(methyloxy)phenyl]-1-methylethyl}-2-{[(2-chloro-5-fluorophenyl)methyl]thio}-1-(4-fluorophenyl)-1H-imidazole]"
< 0.1 µM,< 0.1 µM,"COc1ccc(C(C)(C)c2cnc(COc3c(F)cccc3Cl)n2-c2ccc(F)cc2)cc1OC [5-{1-[3,4-bis(methyloxy)phenyl]-1-methylethyl}-2-{[(2-chloro-6-fluorophenyl)oxy]methyl}-1-(4-fluorophenyl)-1H-imidazole]"
< 0.1 µM,< 0.1 µM,"COc1ccc(C(C)(C)c2cnc(CSc3c(F)cccc3Cl)n2-c2ccc(F)cc2)cc1OC [5-{1-[3,4-bis(methyloxy)phenyl]-1-methylethyl}-2-{[(2-chloro-6-fluorophenyl)thio]methyl}-1-(4-fluorophenyl)-1H-imidazole]"
